Structures are written as SMILES. Read-outs that look alike come from different tables or passages of the source.

These results are taken from paper doi:10.1101/2020.05.11.20064584v1 (medRxiv, 2020).

Data set [1] is described as follows: Acute and subchronic toxicity test in rats. To be noted: SD rats, oral gavage, 100 times of the expected clinical dose. Type of data set: in vivo.
The conditions of data set [2]: 6.0E10/kg·day by gavage, end of two weeks, n=5, Mean ± SEM.
Data set [3] can be described thus: Rat pharmacokinetics, blood LL-37 by ELISA after gavage. Type of data set: in vivo, SD rats. To be noted: male, SD, serum, po.
The test system of data set [4] is rVSV-SARS. The conditions noted are these: 2 h, 10 ug/ml.

As to `CC[C@H](C)[C@H](NC(=O)[C@H](CCCCN)NC(=O)[C@H](CCC(=O)O)NC(=O)[C@H](CCCCN)NC(=O)[C@H](CO)NC(=O)[C@H](CCCCN)NC(=O)[C@H](CCCNC(=N)N)NC(=O)[C@H](Cc1ccccc1)NC(=O)[C@H](Cc1ccccc1)NC(=O)[C@H](CC(=O)O)NC(=O)CNC(=O)[C@H](CC(C)C)NC(=O)[C@@H](N)CC(C)C)C(=O)NCC(=O)N[C@@H](CCCCN)C(=O)N[C@@H](CCC(=O)O)C(=O)N[C@@H](Cc1ccccc1)C(=O)N[C@@H](CCCCN)C(=O)N[C@@H](CCCNC(=N)N)C(=O)N[C@H](C(=O)N[C@H](C(=O)N[C@@H](CCC(N)=O)C(=O)N[C@@H](CCCNC(=N)N)C(=O)N[C@H](C(=O)N[C@@H](CCCCN)C(=O)N[C@@H](CC(=O)O)C(=O)N[C@@H](Cc1ccccc1)C(=O)N[C@@H](CC(C)C)C(=O)N[C@@H](CCCNC(=N)N)C(=O)N[C@@H](CC(N)=O)C(=O)N[C@@H](CC(C)C)C(=O)N[C@H](C(=O)N1CCC[C@H]1C(=O)N[C@@H](CCCNC(=N)N)C(=O)N[C@H](C(=O)N[C@@H](CCC(=O)O)C(=O)N[C@@H](CO)C(=O)O)[C@@H](C)O)C(C)C)[C@@H](C)CC)C(C)C)[C@@H](C)CC` [LL-37], the LD50 result in data set [1] is “more than 6 × 10^10 CFU/kg/ day”. In data set [2] (female SD rats), this compound yielded a CK of 715.56±343.35 U/L, a TC of 1.30 ± 0.20 mM and a TG of 0.33 ± 0.07 mM. In data set [2] (male SD rats), this compound displayed a CK of 661.02±93.22 U/L and a TG of 0.29 ± 0.03 mM. In data set [3], this compound yielded a level at 1 h of 0.7 ng/mL, a level at 2 h of 1.65 ng/mL, a level at 4 h of 0.92 ng/mL and a level at 6 h of 0.14 ng/mL. Further, the “maximum inhibition rate, rVSV-SARS” value in data set [4] came out at 85%.
